Where two headings read alike, the source gives them in different places.
Key:
[1] = target: T1, 5-HT1A receptor (Homo sapiens, UniProt P08908); test: cAMP accumulation assay, 5-HT1A function; assay type: cell-based; conditions: for EC50: cells marked EC50 (agonist); for IC50: cells marked IC50 (antagonist)
T1 sequence (P08908 1-422): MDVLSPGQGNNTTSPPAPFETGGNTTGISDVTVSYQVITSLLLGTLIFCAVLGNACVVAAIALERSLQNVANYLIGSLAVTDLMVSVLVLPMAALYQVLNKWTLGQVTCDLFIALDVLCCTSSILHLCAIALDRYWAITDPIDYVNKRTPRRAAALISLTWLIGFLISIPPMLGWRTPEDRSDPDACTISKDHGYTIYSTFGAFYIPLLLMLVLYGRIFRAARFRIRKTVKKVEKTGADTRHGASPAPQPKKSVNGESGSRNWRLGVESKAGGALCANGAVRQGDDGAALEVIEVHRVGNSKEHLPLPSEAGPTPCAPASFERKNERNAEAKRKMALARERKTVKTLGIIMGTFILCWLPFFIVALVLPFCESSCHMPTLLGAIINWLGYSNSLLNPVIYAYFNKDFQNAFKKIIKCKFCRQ
Source text: The agonist or antagonist activity at 5-HT1A receptors was established by using two different assays. […] Agonists produce an increase in binding whereas antagonists produce no increase but rather reverse the effects of the standard agonist 8-OH-DPAT. The test compound's maximum stimulatory effect is represented as the Emax, while its potency is defined by the EC50. The test compound's maximum inhibitory effect is represented as the Imax, while its potency is defined by the IC50. The second assay measured cAMP accumulation upon binding of the ligand to the 5-HT1A receptor. […] The test compound's maximum stimulatory or inhibitory effect is represented as the Emax while its potency is defined by either IC50 for an antagonist or EC50 for an agonist. [^3H]-8-OH-DPAT was used to determine maximum agonist or antagonist response in both functional assays.

[2] = target: T2, cloned human 5-HT1A receptors (Homo sapiens, UniProt P08908); test: 35S-GTPγS binding assay, 5-HT1A function; assay type: biochemical; conditions: for EC50: agonist potency; for IC50: antagonist potency, reversal of 8-OH-DPAT
T2 construct: expressed in transfected cells
T2 sequence (P08908 1-422): T1 sequence (P08908 1-422)

[3] = target: T3, serotonin transporter (Rattus norvegicus, UniProt P31652); test: 5-HT transporter affinity: displacement of 3H-paroxetine from male rat cortical membranes; assay type: binding; conditions: displacement of 3H-paroxetine, male rat cortical membranes
T3 construct: displace ^3H-paroxetine from male rat cortical membranes; from tissue; host or cells: male rat cortical membranes

[4] = target: T1, 5-HT1A receptor; test: 5-HT1A receptor affinity: displacement of [3H] 8-OH-DPAT; assay type: binding; design: expressed in transfected cells; conditions: displacement of [3H] 8-OH-DPAT, CHO cells stably transfected with human 5-HT1A receptors
[5] = maximum stimulatory effect, in brackets after EC50
[6] = read-out: 5-HT Transporter Affinity Ki
[7] = read-out: 5-HT1A Receptor Affinity Ki
[8] = read-out: 5-HT1A Function cAMP IC50
[9] = in brackets after EC50 or IC50, read-out: 5-HT1A Function cAMP (Emax)
[10] = read-out: 5-HT1A Function GTPγS IC50
[11] = maximum inhibitory effect, in brackets after IC50, read-out: 5-HT1A Function GTPγS (Imax)
[12] = maximum stimulatory effect, in brackets after EC50, read-out: 5-HT1A Function GTPγS (Emax)
[13] = maximum inhibitory effect, in brackets after IC50

T3 sequence (P31652 whole entry): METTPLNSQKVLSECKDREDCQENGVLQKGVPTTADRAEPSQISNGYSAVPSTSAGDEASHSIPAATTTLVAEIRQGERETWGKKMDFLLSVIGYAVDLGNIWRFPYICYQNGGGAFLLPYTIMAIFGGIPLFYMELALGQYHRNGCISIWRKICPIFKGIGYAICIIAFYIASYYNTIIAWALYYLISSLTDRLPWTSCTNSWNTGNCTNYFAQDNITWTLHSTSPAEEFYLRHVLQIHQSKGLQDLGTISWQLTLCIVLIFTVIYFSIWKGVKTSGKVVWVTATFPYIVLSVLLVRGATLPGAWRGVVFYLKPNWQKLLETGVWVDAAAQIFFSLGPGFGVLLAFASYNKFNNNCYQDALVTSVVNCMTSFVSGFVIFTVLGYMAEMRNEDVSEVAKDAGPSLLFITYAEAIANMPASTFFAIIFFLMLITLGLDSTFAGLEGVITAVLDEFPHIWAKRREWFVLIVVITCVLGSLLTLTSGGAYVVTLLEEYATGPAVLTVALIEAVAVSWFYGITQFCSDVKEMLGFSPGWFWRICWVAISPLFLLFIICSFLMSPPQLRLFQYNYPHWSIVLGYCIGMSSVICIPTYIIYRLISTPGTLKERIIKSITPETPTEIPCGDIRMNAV

Row | Compound | EC50 [1] | EC50 [2] | Ki [3, 6] | Ki [4, 7] | IC50 [1, 8] | Emax [1, 9] | IC50 [2, 10] | Emax [2, 11] | further results
1 | [3-(5-fluoro-1H-indol-3-yl)-propyl]-((3S)-5-methoxychroman-3-yl)propylamine [Compound 25] | 1.06 nM | 155 nM | 16.5 nM | 24.3 nM | – | – | – | – | 5-HT1A Function cAMP (Emax) ([1]; in brackets after EC50 or IC50): 93.5%; 5-HT1A Function GTPγS (Emax) [2, 5]: 88%
2 | [3-(5-fluoro-1H-indol-3-yl)-propyl]-(8-fluoro-5-methoxychroman-3-yl)propylamine [Compound 26] | 23.6 nM | 210 nM | 12.5 nM | 19.4 nM | – | – | – | – | 5-HT1A Function cAMP (Emax) ([1]; in brackets after EC50 or IC50): 83.5%; 5-HT1A Function GTPγS (Emax) [2, 5]: 79.5%
3 | CC(C)NC(=O)c1ccc(F)c2c1CC(N(CCCc1c[nH]c3ccc(F)cc13)C1CCC1)CO2 (centres unmarked) [Compound 63, 3-{cyclobutyl[3-(5-fluoro-1H-indol-3-yl)propyl]amino}-8-fluoro-N-isopropylchromane-5-carboxamide] | – | – | 3.56 nM | 46.1 nM | 449 nM | 0% | 2170 nM | 76% | –
4 | N#Cc1ccc2[nH]cc(CCCN(CC3CC3)[C@@H]3COc4c(F)ccc(C(N)=O)c4C3)c2c1 [Compound 98a, (3S)-3-[[3-(5-cyano-1H-indol-3-yl)propyl](cyclopropylmethyl)amino]-8-fluorochromane-5-carboxamide] | – | – | 3.2 nM | 4.72 nM | 113 nM | 0% | 586 nM | 51% | –
5 | CNC(=O)c1ccc(F)c2c1CC(N(CCc1c[nH]c3ccc(F)cc13)C1CCC1)CO2 (centres unmarked) [Compound 87, 3-{cyclobutyl[2-(5-fluoro-1H-indol-3-yl)ethyl]amino}-8-fluoro-N-methylchromane-5-carboxamide] | – | – | 26.5 nM | 7.01 nM | 172 nM | 0% | 513 nM | 100% | –
6 | O=C(NC1CC1)c1ccc(F)c2c1CC(N(CCCc1c[nH]c3ccc(F)cc13)C1CCC1)CO2 (centres unmarked) [Compound 64, 3-{cyclobutyl[3-(5-fluoro-1H-indol-3-yl)propyl]amino}-N-cyclopropyl-8-fluorochromane-5-carboxamide] | – | – | 4.89 nM | 19.2 nM | 288 nM | 0% | 395 nM | 90% | –
7 | NC(=O)c1ccc(F)c2c1OCC(N(CCCc1c[nH]c3c(F)cc(F)cc13)CC1CC1)C2 (centres unmarked) [Compound 130, 3-{(cyclopropylmethyl)[3-(5,7-difluoro-1H-indol-3-yl)propyl]amino}-5-fluorochromane-8-carboxamide] | 14.8 nM | 788 nM | 166 nM | 74.3 nM | – | 72% | – | – | Emax [2, 12]: 39%
8 | COc1cccc2c1CC(N(CCCc1c[nH]c3ccccc13)CC1CC1)CO2 (centres unmarked) [Compound 43, N-(cyclopropylmethyl)-N-[3-(1H-indol-3-yl)propyl]-N-(5-methoxy-3,4-dihydro-2H-chromen-3-yl)amine] | 10.8 nM | 51.3 nM | 40.9 nM | 1.02 nM | – | 91.5% | – | – | Emax [2, 12]: 100%
9 | NC(=O)c1ccc(F)c2c1CC(N(CCCc1c[nH]c3ccc(Cl)cc13)C1CCC1)CO2 (centres unmarked) [Compound 117, 3-[[3-(5-chloro-1H-indol-3-yl)propyl](cyclobutyl)amino]-8-fluorochromane-5-carboxamide] | – | – | 75.5 nM | 3.98 nM | 272 nM | 0% | 735 nM | 100% | –
10 | CCN(CCCc1c[nH]c2ccc(F)cc12)C1COc2c(F)ccc(C(N)=O)c2C1 (single isomer, unassigned; (+)) [Compound 3b, (+)-3-{ethyl[3-(5-fluoro-1H-indol-3-yl)propyl]amino}-8-fluoro-3,4-dihydro-2H-chromene-5-carboxamide] | 31.4 nM | – | 4.5 nM | 15.5 nM | – | – | 665 nM | – | 5-HT1A Function cAMP (Emax) ([1]; in brackets after EC50 or IC50): 90.5%; 5-HT1A Function GTPγS (Imax) [2, 13]: 35.8%
11 | CCN(CC1CCc2[nH]c3ccc(F)cc3c2C1)[C@H]1COc2c(F)ccc(C(N)=O)c2C1 (single isomer, unassigned; (+)) [Compound 176b] | – | – | 165 nM | 24.6 nM | 669 nM | – | 827 nM | – | 5-HT1A Function cAMP (Emax) ([1]; in brackets after EC50 or IC50): 0%; 5-HT1A Function GTPγS (Imax) [2, 13]: 88%
12 | CCN(CCCCc1coc2c(OC)cccc12)C1COc2c(F)ccc(C(N)=O)c2C1 (centres unmarked) [Compound 168, 3-{ethyl[4-(7-methoxy-1-benzofuran-3-yl)butyl]amino}-8-fluorochromane-5-carboxamide] | – | 243 nM | 187 nM | 3.49 nM | 50.8 nM | 0% | – | – | Emax [2, 12]: 76%
13 | NC(=O)c1ccc(F)c2c1C[C@@H](NCC1CCc3[nH]c4ccc(F)cc4c3C1)CO2 (single isomer, unassigned; (-)) [Compound 175a] | – | – | 20.9 nM | 38 nM | 1480 nM | 0% | 429 nM | – | 5-HT1A Function GTPγS (Imax) [2, 13]: 100%
14 | CCCN(C(C)CCc1c[nH]c2ccc(F)cc12)C1COc2c(F)ccc(C(N)=O)c2C1 (single isomer, unassigned) [Compound 12a, 8-fluoro-3-[[3-(5-fluoro-1H-indol-3-yl)-1-methylpropyl](propyl)amino]-3,4-dihydro-2H-chromene-5-carboxamide] | – | – | 22 nM | 5.19 nM | 47.5 nM | – | 323 nM | – | 5-HT1A Function cAMP (Emax) ([1]; in brackets after EC50 or IC50): 0%; 5-HT1A Function GTPγS (Imax) [2, 13]: 96%
15 | CCN(CCc1c[nH]c2ccc(F)cc12)C1COc2c(F)ccc(C(N)=O)c2C1 (centres unmarked) [Compound 76, 3-{ethyl[2-(5-fluoro-1H-indol-3-yl)ethyl]amino}-8-fluorochromane-5-carboxamide] | – | – | – | – | – | 0% | – | 68% | IC50 ([1]; 5-HT1A Function cAMP IC50 (nM)): 68.2 nM; IC50 ([2]; 5-HT1A Function GTPγS IC50 (nM)): 470 nM; Ki ([3]; 5-HT Transporter Affinity Ki (nM)): 52 nM; Ki ([4]; 5-HT1A Receptor Affinity Ki (nM)): 31.3 nM
16 | COC(=O)c1ccc(F)c2c1CC(N(CCCc1c[nH]c3ccc(F)cc13)C1CCC1)CO2 (centres unmarked) [Compound 11, Methyl 3-{cyclobutyl[3-(5-fluoro-1H-indol-3-yl)propyl]amino}-8-fluorochromane-5-carboxylate] | – | – | 161 nM | 73.8 nM | 403 nM | 0% | 345 nM | 62% | –
17 | CCCN(CCCc1c[nH]c2ccc(F)cc12)[C@H]1COc2c(F)ccc(OC)c2C1 [Compound 28, (3R)-8-fluoro-N-[3-(5-fluoro-1H-indol-3-yl)propyl]-5-methoxy-N-propylchroman-3-amine] | 36.5 nM | 166 nM | 17.5 nM | 11 nM | – | 86% | – | – | Emax [2, 12]: 88%
18 | CCCNC(=O)c1ccc(F)c2c1CC(N(CCCc1c[nH]c3ccc(F)cc13)C1CCC1)CO2 (centres unmarked) [Compound 61, 3-{cyclobutyl[3-(5-fluoro-1H-indol-3-yl)propyl]amino}-8-fluoro-N-propylchromane-5-carboxamide] | – | – | 2.4 nM | 195 nM | 593 nM | – | 800 nM | – | Emax ([1]; read-out: 5-HT1A Function cAMP (Emax), in brackets after EC50 or IC50): 0%
19 | NC(=O)c1ccc(F)c2c1CC(N(CCCCc1c[nH]c3ccc(F)cc13)CC1CC1)CO2 (centres unmarked) [Compound 82, 3-{(cyclopropylmethyl)[4-(5-fluoro-1H-indol-3-yl)butyl]amino}-8-fluorochromane-5-carboxamide] | – | – | 3.51 nM | 1.64 nM | 51.1 nM | 0% | 162 nM | 100% | –
